# Tests used:
# Format in all cases: in vivo
# Stellaria media = experiment: Pre-emergence herbicidal action, STEME; design: key to Herbicidal action against STEME: % activity: 100 = plants have died, 0 = like control plants; conditions: for herbicidal activity STEME / herbicidal action STEME: dosage 320 g/ha; for herbicidal activity STEME: scored visually after 3 weeks vs untreated controls (100% = plants have died)
# Method in brief: (§1)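 Pre-emergence soil spray over sandy loam-covered seeds; greenhouse 3 weeks; % visual damage (0% = control, 100% = dead).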
# Abutilon theophrasti = experiment: Post-emergence herbicidal action, ABUTH; design: key: % herbicidal action vs untreated; 100 = plants died, 0 = like control
# Method in brief: (§2)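 Treatment: post-emergence spray, one-leaf stage. Medium: sandy loam, greenhouse. Carrier: 600–800 l/ha water, 0.2% wetting agent. Read-out: visual % activity at ~3 weeks, untreated plants as reference.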
# Echinochloa crus-galli = experiment: Pre-emergence herbicidal action, ECHCG; design: key to Herbicidal action against ECHCG: % activity: 100 = plants have died, 0 = like control plants; conditions: for herbicidal activity ECHCG / herbicidal action ECHCG: dosage 320 g/ha; for herbicidal activity ECHCG: scored visually after 3 weeks vs untreated controls (100% = plants have died); for Herbicidal action against ECHCG: comparative experiment, 80 g of a.i./ha
# Method in brief: as §1
# Alopecurus myosuroides = experiment: Post-emergence herbicidal action, ALOMY; design: key: % herbicidal action vs untreated; 100 = plants died, 0 = like control
# Method in brief: as §2
# Pharbitis purpurea = experiment: Post-emergence herbicidal action, PHBPU
# Method in brief: as §2
# Avena fatua = experiment: Post-emergence herbicidal action, AVEFA; design: key: % herbicidal action vs untreated; 100 = plants died, 0 = like control
# Method in brief: as §2
# [1] = comparative experiment, post-emergence, 20 g of a.i./ha
SMILES,herbicidal activity STEME (Stellaria media),"herbicidal action ABUTH (Abutilon theophrasti; post-emergence, dosage 80 g/ha)",herbicidal activity ECHCG (Echinochloa crus-galli),"herbicidal action ALOMY (Alopecurus myosuroides; post-emergence, dosage 80 g/ha)","herbicidal action PHBPU (Pharbitis purpurea; post-emergence, dosage 80 g/ha)","herbicidal action AVEFA (Avena fatua; post-emergence, dosage 80 g/ha)",Herbicidal action against ECHCG (Echinochloa crus-galli),Herbicidal action against ALOMY (Alopecurus myosuroides; [1]),Herbicidal action against PHBPU (Pharbitis purpurea; [1]),Herbicidal action against AVEFA (Avena fatua; [1]),herbicidal action ABUTH (Abutilon theophrasti; Dosage 80 g/ha),herbicidal action ALOMY (Alopecurus myosuroides; Dosage 80 g/ha),herbicidal action PHBPU (Pharbitis purpurea; Dosage 80 g/ha),herbicidal action AVEFA (Avena fatua; Dosage 80 g/ha),herbicidal action STEME (Stellaria media),herbicidal action ECHCG (Echinochloa crus-galli),"Herbicidal action against STEME (Stellaria media; comparative experiment, 80 g of a.i./ha)",Herbicidal action against ABUTH (Abutilon theophrasti; [1])
Cn1nnnc1NC(=O)c1ccc(C(F)(F)F)c(C[S+]([O-])C2CC2)c1Cl (racemic) [Example 1-303],100%,100%,100%,100%,100%,100%,,,,,,,,,,,,
CCS(=O)(=O)Cc1c(C(F)(F)F)ccc(C(=O)Nc2nnnn2C)c1Br [Example 1-385],90%,100%,100%,90%,90%,100%,100,80,80,80,,,,,,,,
CCCn1nnnc1NC(=O)c1ccc(C(F)(F)F)c(C[S+]([O-])CC)c1Br (stereo not shown) [Example 3-384],90%,,100%,,,,,,,,100,80,80,90,,,,
Cn1nnnc1NC(=O)c1ccc(C(F)(F)F)c(CS(=O)(=O)C2CC2)c1Cl [Example 1-304],100%,100%,100%,100%,100%,100%,,,,,,,,,,,,
CCCn1nnnc1NC(=O)c1ccc(C(F)(F)F)c(CSCC2CC2)c1Cl [Example 3-314],100%,100%,90%,100%,100%,100%,,,,,,,,,,,,
CCCn1nnnc1NC(=O)c1ccc(I)c(C[S+](C)[O-])c1Cl (stereo not shown) [Example 3-363],,,,,,,,,,,90,80,90,80,100%,100%,,
CCn1nnnc1NC(=O)c1ccc(C(F)(F)F)c(C[S+](C)[O-])c1SC (stereo not shown) [Example 2-162],100%,,100%,,,,,,,,100,90,90,100,,,,
CCn1nnnc1NC(=O)c1ccc(I)c(C[S+](C)[O-])c1Cl (stereo not shown) [Example 2-363],100%,,100%,,,,,,,,100,90,90,90,,,,
Cn1nnnc1NC(=O)c1ccc(C(F)(F)F)c(CSC2CC2)c1Cl [Example 1-302],100%,100%,100%,100%,100%,100%,,,,,,,,,,,,
CCCn1nnnc1NC(=O)c1ccc(C(F)(F)F)c(CSCC(F)(F)F)c1Cl [Example 3-311],,,,,,,,,,,100,100,100,100,90%,80%,,
COCCSCc1c(C(F)(F)F)ccc(C(=O)Nc2nnnn2C)c1Cl [Example 1-305],100%,100%,100%,100%,100%,100%,,,,,,,,,,,,
CSCc1c(C(F)(F)F)ccc(C(=O)Nc2nnnn2C)c1C [Example 1-83],100%,90%,100%,80%,100%,90%,,,,,,,,,,,,
Cn1nnnc1NC(=O)c1ccc(C(F)(F)F)c(CSCC2CC2)c1Cl [Example 1-314],90%,100%,100%,100%,100%,100%,,,,,,,,,,,,
CCCn1nnnc1NC(=O)c1ccc(C(F)F)c(CSCC)c1Cl [Example 3-323],100%,,100%,,,,,,,,100,80,90,90,,,,
Cn1nnnc1NC(=O)c1ccc(C(F)F)c(CS(C)(=O)=O)c1Cl [Example 1-322],100%,100%,100%,90%,80%,80%,,,,,,,,,,,,
CCn1nnnc1NC(=O)c1ccc(C(F)(F)F)c(C[S+]([O-])CC)c1Br (stereo not shown) [Example 2-384],100%,100%,100%,90%,90%,90%,,,,,,,,,,,,
CC[S+]([O-])Cc1c(C(F)(F)F)ccc(C(=O)Nc2nnnn2C)c1Br (racemic) [Example 1-384],100%,100%,100%,90%,90%,100%,100,,,,,,,,,,100,90
CCCn1nnnc1NC(=O)c1ccc(C(F)(F)F)c(CS(C)(=O)=O)c1SC [Example 3-163],100%,,100%,,,,,,,,100,90,90,90,,,,
CCn1nnnc1NC(=O)c1ccc(C(F)(F)F)c(CS(C)(=O)=O)c1Cl [Example 2-298],90%,,100%,,,,,,,,80,80,90,100,,,,
CCn1nnnc1NC(=O)c1ccc(C(F)(F)F)c(C[S+](C)[O-])c1Cl (stereo not shown) [Example 2-297],100%,80%,100%,100%,100%,100%,,,,,,,,,,,,
CCn1nnnc1NC(=O)c1ccc(C(F)(F)F)c(CS(=O)(=O)CC)c1Cl [Example 2-301],,,,,,,,,,,80,80,90,90,80%,100%,,
CCS(=O)(=O)Cc1c(C(F)F)ccc(C(=O)Nc2nnnn2C)c1Cl [Example 1-325],100%,,100%,,,,,,,,100,90,100,90,,,,

# From patent publication US12492173B2, “Herbicidal substituted N-tetrazolyl aryl carboxamides” (Bayer Aktiengesellschaft, priority 2019, dated 2025)
